Patent US20100105723A1, “5-PHENYL-6-PYRIDIN-4-YL-1,3-DIHYDRO-2H-IMIDAZO[4,5-b]PYRIDIN-2-ONE DERIVATIVES USEFUL AS A2B ADENOSINE RECEPTOR ANTAGONISTS” (priority 2006, published 2010)

How the values were obtained:
[1] = target: T1, human A2B receptor (Homo sapiens, UniProt P29275); experiment: A2B radioligand filtration binding assay ([3H]-DPCPX competition); settings: membranes from HEK293 cells expressing human A2B receptor; mean of at least two independent determinations; read-out: Ki hA2B
T1 construct: host or cells: HEK293
T1 sequence (P29275 1-332): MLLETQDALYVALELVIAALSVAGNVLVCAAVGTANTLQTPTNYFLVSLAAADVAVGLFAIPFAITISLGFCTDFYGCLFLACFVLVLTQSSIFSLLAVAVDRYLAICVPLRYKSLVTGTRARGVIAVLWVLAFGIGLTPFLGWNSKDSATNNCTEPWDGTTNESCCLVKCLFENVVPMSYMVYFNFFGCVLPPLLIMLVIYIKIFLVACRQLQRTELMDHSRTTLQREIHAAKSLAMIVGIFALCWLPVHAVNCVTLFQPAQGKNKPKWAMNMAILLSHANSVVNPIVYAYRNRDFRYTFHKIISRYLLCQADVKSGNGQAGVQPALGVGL
Protocol: For A2B, competition assays were carried out in filtration binding assay, incubating in polypropylene 96 well-plates (n^o 267245, NUNC) containing 2 μL of either 1% DMSO solution, test compound or 100 μM 5′NECA (SIGMA E-2387) for non-specific binding, 100 μg of A2B-membranes prepared from HEK293 cells stably expressing the human A2B receptor (Euroscreen ES-013-C) and 35 nM [^3H]-DPCPX (TRK1064, 128 Ci/mmol, Amersham), in a total volume of 200 μl of buffer A+2 Ul/ml adenosine deaminase, for 60 minutes at room temperature.

[2] = target: T2, human A2A receptor (Homo sapiens, UniProt P29274); experiment: A2A radioligand SPA binding assay (3H-ZM241385); settings: for Ki: membranes from HeLa cells transfected with human A2A receptor, mean of at least two independent determinations, read-out: Ki hA2A
T2 construct: expressed in transfected cells; host or cells: HeLa
Protocol: For A2A receptors binding technology was SPA (Amhersham) with 3,3 nM ^3H-ZM241385, […] unlabelled NECA, membranes from HeLa cells transfected with human A2A receptor, incubated 1 h. at room temperature with 1 mg YSi-WGA beads in TrisHCl 50 mM pH 7.4, EDTA 1 mM, MgCl2 10 mM, 2 U/ml adenosin deaminase.

[3] = target: T3, human A1 receptor (Homo sapiens, UniProt P30542); experiment: A1 radioligand filtration binding assay (3H-DPCPX); settings: membranes from CHO cells transfected with human A1 receptor; mean of at least two independent determinations; read-out: Ki hA1
T3 construct: host or cells: CHO
T3 sequence (P30542 1-326): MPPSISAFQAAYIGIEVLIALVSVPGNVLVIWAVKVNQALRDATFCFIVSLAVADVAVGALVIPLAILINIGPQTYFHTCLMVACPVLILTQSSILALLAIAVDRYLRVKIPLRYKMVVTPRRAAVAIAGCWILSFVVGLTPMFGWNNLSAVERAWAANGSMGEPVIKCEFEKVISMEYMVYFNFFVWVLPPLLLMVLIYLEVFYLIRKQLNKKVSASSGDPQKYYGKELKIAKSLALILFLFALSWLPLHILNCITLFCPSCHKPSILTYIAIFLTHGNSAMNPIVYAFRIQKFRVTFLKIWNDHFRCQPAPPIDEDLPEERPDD
Protocol: For A1 receptors a filtration binding assay was performed with 2 nM ^3H-DPCPX, […] unlabelled R-PIA, membranes from CHO cells transfected with human A1 receptor (Euroscreen ES-010-C) and incubated 90 min. at room temperature in Hepes 20 mM pH 7.4, NaCl 100 mM, MgCl2 10 mM and 2 U/ml adenosin deaminase.

[4] = target: T4, human A3 receptor (Homo sapiens, UniProt P0DMS8); experiment: A3 radioligand filtration binding assay (3H-NECA); settings: for inhibition at 1 µM: at indicated concentration (1000 nM), read-out: % inhibition of radioligand binding at indicated concentration, hA3; for Ki: membranes from HeLa cells transfected with human A3 receptor, read-out: Ki hA3
T4 construct: expressed in transfected cells; host or cells: HeLa
T4 sequence (P0DMS8 1-318): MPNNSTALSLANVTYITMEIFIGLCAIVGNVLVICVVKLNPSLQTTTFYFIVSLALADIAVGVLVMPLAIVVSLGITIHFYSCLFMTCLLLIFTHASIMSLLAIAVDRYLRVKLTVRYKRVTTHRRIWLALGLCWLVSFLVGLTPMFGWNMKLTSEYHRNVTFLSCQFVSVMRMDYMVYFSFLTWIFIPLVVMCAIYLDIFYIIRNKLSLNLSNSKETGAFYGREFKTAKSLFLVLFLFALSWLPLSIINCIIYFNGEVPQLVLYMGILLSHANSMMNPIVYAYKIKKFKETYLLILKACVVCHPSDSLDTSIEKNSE
Protocol: For A3 receptors, in filtration binding assay, 30 nM ^3H-NECA, […] unlabelled R-PIA, […] membranes from HeLa cells transfected with human A3 receptor, incubated 3 h. at room temperature in TrisHCl 50 mM pH 7.4, EDTA 1 mM, MgCl2 5 mM, 2 U/ml adenosin deaminase.

T2 sequence (P29274 whole entry): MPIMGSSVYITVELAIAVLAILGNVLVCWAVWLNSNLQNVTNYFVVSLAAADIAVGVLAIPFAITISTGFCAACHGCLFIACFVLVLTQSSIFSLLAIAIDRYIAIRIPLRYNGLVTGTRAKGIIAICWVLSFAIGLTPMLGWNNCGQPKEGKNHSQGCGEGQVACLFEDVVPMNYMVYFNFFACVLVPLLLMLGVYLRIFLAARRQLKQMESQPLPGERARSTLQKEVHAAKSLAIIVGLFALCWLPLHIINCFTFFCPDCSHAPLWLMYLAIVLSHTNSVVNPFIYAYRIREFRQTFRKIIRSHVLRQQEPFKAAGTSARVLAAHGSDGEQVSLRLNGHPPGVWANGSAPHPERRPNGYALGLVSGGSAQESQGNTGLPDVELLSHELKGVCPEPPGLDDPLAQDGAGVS

Row | Ki [1] [nM] | Ki [2] [nM] | Ki [3] [nM] | inhibition at 1 µM [4] [%] | Ki [4] [nM] | inhibition at 2.5 µM ([2]; at indicated concentration (2500 nM), read-out: % inhibition of radioligand binding at indicated concentration, hA2A) [%] | SMILES
1 | 0.9 | 721 | 35 | 19 | > 1000 |  | O=c1[nH]c2cc(-c3ccncc3F)c(-c3ccccc3F)nc2[nH]1 [Example 1, 5-(2-Fluorophenyl)-6-(3-fluoropyridin-4-yl)-1,3-dihydro-2H-imidazo[4,5-b]pyridin-2-one]
2 | 1.1 | > 2500 | 632 | 18 | > 1000 | 6 | O=c1[nH]c2cc(-c3c(F)cncc3F)c(-c3ccccc3F)nc2[nH]1 [Example 3, 6-(3,5-Difluoropyridin-4-yl)-5-(2-fluorophenyl)-1,3-dihydro-2H-imidazo[4,5-b]pyridin-2-one]
3 | 1.8 | 449 | 76 | 22 | > 1000 |  | O=c1[nH]c2cc(-c3ccncc3Cl)c(-c3ccccc3F)nc2[nH]1 [Example 2, 6-(3-Chloropyridin-4-yl)-5-(2-fluorophenyl)-1,3-dihydro-2H-imidazo[4,5-b]pyridin-2-one]
